Data set [1] addresses T1, AT1aR (Rattus norvegicus, UniProt P25095).
T1 construct: expressed in transfected cells; host or cells: HEK293T, transient, crude membranes
T1 sequence (P25095 1-359): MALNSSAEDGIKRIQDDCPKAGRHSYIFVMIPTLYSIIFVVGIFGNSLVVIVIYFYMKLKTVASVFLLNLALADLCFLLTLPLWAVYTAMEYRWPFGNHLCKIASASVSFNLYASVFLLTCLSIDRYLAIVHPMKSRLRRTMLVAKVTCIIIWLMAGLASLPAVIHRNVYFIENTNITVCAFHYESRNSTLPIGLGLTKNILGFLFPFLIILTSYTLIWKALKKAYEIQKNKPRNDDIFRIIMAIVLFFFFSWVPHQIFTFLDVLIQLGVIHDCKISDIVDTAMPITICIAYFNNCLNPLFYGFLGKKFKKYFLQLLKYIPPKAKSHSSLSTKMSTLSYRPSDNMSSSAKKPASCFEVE
Briefly: Radioligand binding assays (saturation and competition), HEK293T membranes. The note with it: for Ki: competition vs 2 nM [125I]-AII, 2 hours on ice, Cheng and Prusoff, receptor printed AT1R. The protocol:
(§1) Cell culture and transient transfection. HEK293T cells were maintained at 37° C. in Dulbecco's modified Eagle's medium (DMEM) supplemented with 10% (v/v) fetal bovine serum (FBS), 2 mM glutamine, 100 U/ml penicillin, and 100 μg/ml streptomycin. Cells were seeded into 10 cm dish and 24 hours later were transfected with either AT1aR (pcDNA3.1) or AT2R (pcDNAI/Amp) using GeneJuice transfection reagent according to the manufacturer's instructions. Cells were harvested 48 hours after transfection. A pellet of transfected HEK293T cells (2×10^6 cells) was resuspended in ice-cold 0.5 ml binding buffer (50 mM Tris-HCl pH 7.4, 100 mM NaCl, 10 mM MgCl2, 1 mM EDTA, 0.2% BSA and 0.025% Bacitracin) containing protease inhibitors (Complete™, Roche). The cells were transferred to a 1.5 ml microcentrifuge tube and subjected to two cycles of freeze-thawing. The lysed cells were sheared by passaging seven times through a 26-gauge needle and the crude membranes were pelleted by ultracentrifugation (60 min, 120,000×g, 4° C.). The crude membranes were then resuspended in a final volume of 0.2 ml ice-cold binding buffer containing protease inhibitors corresponding to a protein concentration 3.3 μg/μl as determined by the amido black protein assay^45.
(§2) Radioligand binding assays. […] Non-specific binding was determined in presence of 6 μM cold AII. […] Samples were incubated for 2 hours at 4° C. Receptor-bound and free radioligand were separated by filtration through Whatman GF/B filters, pre-soaked with 0.3% polyethylamine. The filters were washed with 5 ml of ice-cold binding buffer and transferred to scintillation tubes. Radioactivity was counted on a Beckman LS6000 liquid scintillation counter and data were analyzed by non-linear regression using Prism software (GraphPad).

The next data set concerns the target T2, AT2R-F272A (Homo sapiens, UniProt P50052, F272A).
T2 construct: expressed in transfected cells; host or cells: HEK293T, transient, crude membranes
T2 sequence (P50052 1-363 F272A): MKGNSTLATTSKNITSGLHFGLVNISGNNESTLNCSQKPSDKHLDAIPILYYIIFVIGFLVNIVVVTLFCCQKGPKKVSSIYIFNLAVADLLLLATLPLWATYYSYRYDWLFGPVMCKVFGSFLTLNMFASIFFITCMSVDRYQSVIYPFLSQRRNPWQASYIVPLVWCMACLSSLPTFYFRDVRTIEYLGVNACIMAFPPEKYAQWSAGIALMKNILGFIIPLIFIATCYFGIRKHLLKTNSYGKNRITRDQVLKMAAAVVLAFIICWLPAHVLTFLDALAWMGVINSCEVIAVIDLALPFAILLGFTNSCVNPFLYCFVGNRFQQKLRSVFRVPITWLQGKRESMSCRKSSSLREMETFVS
Description: Radioligand binding assays, AT2R mutant. The note with it: competition vs 2 nM [125I]-AII, 2 hours on ice, Cheng and Prusoff. The protocol:
(§3) Mutagenesis. AT2R mutants were generated as described elsewhere^44.
as §1, §2

In a further data set the target is T3, AT2R-F272H (Homo sapiens, UniProt P50052, F272H).
T3 construct: expressed in transfected cells; host or cells: HEK293T, transient, crude membranes
T3 sequence (P50052 1-363 F272H): T2 sequence (P50052 1-363 F272A) with A272H
Description: Radioligand binding assays, AT2R mutant. The note with it: competition vs 2 nM [125I]-AII, 2 hours on ice, Cheng and Prusoff. The procedure: as §3, §1, §2

The next data set addresses T4, AT2R-Y189A (Homo sapiens, UniProt P50052, Y189A).
T4 construct: expressed in transfected cells; host or cells: HEK293T, transient, crude membranes
T4 sequence (P50052 1-363 Y189A): T2 sequence (P50052 1-363 F272A) with Y189A, A272F
Briefly: Radioligand binding assays, AT2R mutant. The note with it: competition vs 2 nM [125I]-AII, 2 hours on ice, Cheng and Prusoff. The protocol:
as §3, §1, §2

Another data set deals with T5, AT2R-Y189N (Homo sapiens, UniProt P50052, Y189N).
T5 construct: expressed in transfected cells; host or cells: HEK293T, transient, crude membranes
T5 sequence (P50052 1-363 Y189N): T2 sequence (P50052 1-363 F272A) with Y189N, A272F
Briefly: Radioligand binding assays, AT2R mutant. The settings on record: competition vs 2 nM [125I]-AII, 2 hours on ice, Cheng and Prusoff. The protocol:
as §3, §1, §2

The target in another data set is AT2R wild type. Briefly: Radioligand binding assays (saturation and competition), HEK293T membranes. The protocol: as §1, §2
Data set [2] can be described thus: cis/trans isomer population in aqueous solution by NMR. The format is physicochemical. The settings on record: cis amide bond at residue 6-Pro7, aqueous solution. The text has this: Peptide synthesis and sample preparation. The synthesis of the following peptides: AII (D^1-R^2—V^3—Y^4—I^5—H^6—P^7—F^8); [Y]^6-AII (D^1-R^2—V^3—Y^4—I^5—Y^6—P^7—F^8); [4-OPO3H2—F]^6-AII, (D^1-R^2—V^3—Y^4—I^5-(4-OPO3H2—F)^6—P^7—F^8), [F]^6-AII, (D^1-R^2—V^3—Y^4—I^5—F^6—P^7—F^8) and [4-NO2—F]^6-AII, (D^1-R^2—V^3—Y^4—I^5-(4-NO2—F)^6—P^7—F^8) was achieved using Fmoc/tBu methodology. 2-Chlorotrityl chloride resin and N^α-Fmoc (9-fluorenylmethyloxycarbonyl) amino acids were used for the synthesis. Peptide purity was assessed by analytical HPLC (Nucleosil-120 C18, reversed phase, 250×4.0 mm), mass spectrometry (FABMS, ESIMS) and amino acid analysis. The samples were prepared for NMR spectroscopy by dissolving the peptide in 0.01 M KPi buffer (pH=4), containing 0.02 M KCl. 2,2-dimethyl-2-sila-pentane sulfonate (DSS) was added to a concentration of 1 mM as an internal chemical shift reference. Peptide concentration was commonly 4 mM in 90% ^1H2O/10% ^2H2O. Trace amounts of NaN3 were added as a preservative.
Inter-proton distances for AII were derived by measuring cross-peak intensities in the NOESY spectra. Intensities were calibrated to give a set of distance constrains using the NMRVIEW software package. NOEs cross peaks were separated into three distance categories according to their intensity. […]

Data set [3] concerns AT1aR. The note with it: relative to AII; cited from earlier work.
A further data set deals with T6, AT2R (Homo sapiens, UniProt P50052).
T6 sequence (P50052 1-363): T2 sequence (P50052 1-363 F272A) with A272F
The note with it: relative to AII; cited from earlier work.

Numbering of substitutions follows the chain as printed. Where a SMILES comes first, the peptide text is derived from it. Where no end group is shown, it is not given here. Some results are limits rather than exact numbers.

For the compound `CC[C@H](C)[C@H](NC(=O)[C@H](Cc1ccc(O)cc1)NC(=O)[C@@H](NC(=O)[C@H](CCCNC(=N)N)NC(=O)[C@@H](N)CC(=O)O)C(C)C)C(=O)N[C@@H](Cc1ccc(OP(=O)(O)O)cc1)C(=O)N1CCC[C@H]1C(=O)N[C@@H](Cc1ccccc1)C(=O)O` [[4-OPO3H2—F]^6-AII, D^1-R^2—V^3—Y^4—I^5-(4-OPO3H2—F)^6—P^7—F^8] (HELM PEPTIDE1{D.R.V.Y.I.[O=C([C@H](Cc1ccc(OP(=O)(O)O)cc1)N[*:1])[*:2]].P.F}$$$$V2.0), the Ki at AT1aR [1] was more than 2500 nM; at AT2R-F272A it was 250 nM; at AT2R-F272H, 21 nM; on AT2R-Y189A, 51 nM; at AT2R-Y189N it was 200 nM.
`CC[C@H](C)[C@H](NC(=O)[C@H](Cc1ccc(O)cc1)NC(=O)[C@@H](NC(=O)[C@H](CCCNC(=N)N)NC(=O)[C@@H](N)CC(=O)O)C(C)C)C(=O)N[C@@H](Cc1c[nH]cn1)C(=O)N1CCC[C@H]1C(=O)N[C@@H](Cc1ccccc1)C(=O)O` [[^125I]-AII, reference compound]: the equilibrium dissociation constant (Kd) at AT2R wild type (saturation assay, 2 hours on ice) worked out at 2.3 ± 0.3 nM.
In the case of DRVYIYPF [[Y]^6-AII], the inhibition constant Ki on AT1aR [1] was more than 2500 nM; on AT2R-F272A it was 16 nM; at AT2R-F272H, 16 nM; at AT2R-Y189A, 12 nM; on AT2R-Y189N, 10 nM.
With “D^1-R^2—V^3—Y^4—I^5-(4-NO2—F)^6—P^7—F^8 [[4-NO2—F]^6-AII]”, the “binding / affinity for AT1aR (in words)” value at AT1aR [1] is listed as “high affinity (nM)”. The “lower affinity for AT2R in comparison to [Y]^6-AII” value with AT2R wild type (unpublished data) stood at 300 times. Besides, the “%cis” value in [2] was approximately 5%.
“D^1-R^2—V^3—Y^4—I^5—F^6—P^7—F^8 (DRVYIFPF; Angiotensin-2; UniProt P01019 25-32, looked up, variant H6F) [[F]^6-AII, AII analogue with phenylalanine at position 6]”: in the data set with AT2R wild type (unpublished data), the “affinity for AT1aR compared with AT2R (in words)” value was “same affinity for both AT1aR and AT2R”; the “lower affinity for AT2R in comparison to [Y]^6-AII” value is “more than 50 times”. Further, the “%cis” value in data set [2] was approximately 20%.
For the compound “Pro7Gly mutation in AII: literature AII analogue with Pro7 replaced by Gly (ref 16) (DRVYIHGF; Angiotensin-2; UniProt P01019 25-32, looked up, variant P7G)”, the “lower affinity for AT1aR” value in the data set with AT1aR [3] is on record as 150 times. Also, the “affinity for the AT2R (in words)” value in the data set with AT2R is reported as “almost retained its affinity”.

The Ki is the dissociation constant of the complex between target and ligand, obtained from inhibition or displacement. A higher Ki goes with lower affinity. As usually defined, the Kd is a measure of binding affinity in units of concentration. The low end stands for a tighter complex, the high end for a looser complex.

Source of the values: patent publication US20140303082A1, “SELECTIVE GPCR LIGANDS” (Medical Research Council, priority 2011, published 2014).
